Values joined by “and” are separate entries in the source; they are usually repeats but may differ in a detail not shown here. Equal entries are not always repeated. Active and inactive are the calls of the source.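 The calls were made as follows: active = EC50 under a set limit in control cells lacking the mosquito receptor, marking a fluorescence artifact; inactive = the rest.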
What follows are molecules tested against HEK293 Galpha15/GCaMP6s without NPYLR7, calcium fluorescence (assay: nonspecific activation in parental Galpha15/GCaMP6s cells – cell-based, HEK293 lacking NPYLR7, counter-screen for mosquito NPYLR7 agonist project, dose response (AID 1259426);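 also: potency for a rise in fluorescence over baseline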).

| SMILES | EC50 |
| --- | --- |
| CC(C)C(=O)Nc1sc2c(c1-c1nc3ccccc3s1)CCN(C(C)C)C2 | > 20 µM (inactive) |
| CCN1CCN(C(=O)c2ccc(Cn3ccsc3=NC(=O)c3ccc(OC)c(OC)c3)o2)CC1 | > 20 µM (inactive) |
| CC(=O)Nc1sc2c(c1-c1nc3ccccc3s1)CCN(Cc1ccccc1)C2 | 3.18 µM |
| C=C(C)Cn1c(C(=O)N2CCN(C(=O)CCC(=O)OCC)C(C)C2)cc2ccoc21 (stereo not given) | > 20 µM (inactive) |
| Cc1cc2c(c(-c3ccc4c(cnn4C)c3)c1)OC(CN)C2 (stereo not given) | > 20 µM (inactive) |
| CC1CN(c2ccc(/C=C(\C#N)c3nc4ccccc4[nH]3)o2)CC(C)O1 (stereo not given) | > 20 µM (inactive) |
| CCN1CCN(c2ccc(C(=O)C=Cc3ccc(O)c(OC)c3)cc2F)CC1 | 11.2 µM |
| COc1cccc(-n2c(O)c(C=Nc3cc(OC)ccc3OC)c3ccccc3c2=O)c1 | > 20 µM (inactive) |
| O=C(CN1C(=O)SC(=Cc2ccc(N3CCCCCC3)o2)C1=O)N1CCCCCC1 | > 20 µM (inactive) |
| CC[C@@]1(O)C(=O)OCc2c1cc1n(c2=O)Cc2cc3c(CN(C)C)c(O)ccc3nc2-1 | 0.188 µM and 1.35 µM |
| CCCN1CCc2c(sc3c2c(NC(CC)CO)nc2nnnn23)C1 (stereo not given) | > 20 µM (inactive) |
| CC(C)NCC(O)c1ccc(O)c(O)c1 (stereo not given) | < 0.039 µM |
| O=C1/C(=C/c2cccc(Cl)c2)Oc2c1ccc(O)c2CN1CCN(CCO)CC1 | 11.8 µM |
| N#CC(C#N)=C1C=C2C=C(N3CCCCCC3)CCC2CC1 (stereo not given) | < 0.039 µM |
| Oc1oc(-c2ccccc2Br)nc1C=Nc1ccccc1 | 10.6 µM |
| CC(C)C(C(=O)O)N1C(=O)/C(=C/c2ccc(O)cc2)SC1=S (stereo not given) | 8.26 µM |
| NC(=NC1C2CC3CC(C2)CC1C3)Nc1ccc(I)cc1 (stereo not given) | 14.1 µM |
| COc1cc(/C=C(/C#N)c2nc3cc(Cl)ccc3s2)ccc1O | > 20 µM (inactive) |
| O=c1nc2sc3[nH]c(=O)sc3cc-2s1 | < 0.039 µM |
| CCN1CC(=Cc2cc(C)n(C3CC3)c2C)C(=O)C(=Cc2cc(C)n(C3CC3)c2C)C1 | > 20 µM (inactive) |
| CCN1CCN(Cc2c(O)ccc3c2O/C(=C\c2cc4cc(Br)ccc4o2)C3=O)CC1 | 6.94 µM |
| CN1C(=S)N(C2CCCCC2)C(=O)/C1=C\c1ccc2c(c1)OCO2 | > 20 µM (inactive) |
| COC(=O)C1CCN(S(=O)(=O)c2c(F)cc(F)cc2Br)CC1 | > 20 µM (inactive) |
| COCCOc1ccc(NC(=O)N(C)C(C)C2(C)CC2)cn1 (stereo not given) | > 20 µM (inactive) |
| Cc1nc(=O)c(-c2ccccc2)c(C)n1-c1ccccc1O | > 20 µM (inactive) |

| SMILES | EC50 |
| --- | --- |
| CNCC(O)c1ccc(O)c(O)c1 (stereo not given) | 0.327 µM |
| COc1ccc2c(c1)OCC(C=C(C#N)S(=O)(=O)c1ccc(Br)cc1)=C2 | > 20 µM (inactive) |
| Cc1nc(Sc2nnc3ccccn23)c2c3c(sc2n1)CCCC3 | > 20 µM (inactive) |
| CCOc1cc(/C=C2\SC(=S)N(NC(=O)c3ccccc3O)C2=O)ccc1O | > 20 µM (inactive) |
| COC(=O)C(C)Sc1nc2sc3c(c2c(=O)n1C)CCC3 (stereo not given) | > 20 µM (inactive) |
| COc1ccccc1Oc1nc2ccccn2c(=O)c1/C=C(\C#N)c1nc2ccccc2s1 | > 20 µM (inactive) |
| C[C@@H]1OC(O[C@H]2[C@H](OC(=O)[C@]34CCC(C)(C)CC3C3=CCC5[C@@]6(C)CC[C@H](OC7O[C@@H](C)[C@H](O[C@@H]8OC[C@@H](O)[C@H](O)[C@H]8O)[C@@H](O)[C@H]7O)C(C)(C)C6CC[C@@]5(C)[C@]3(C)CC4O)OC[C@H](O)[C@H]2O)[C@H](O)[C@H](O)[C@H]1O[C@@H]1O[C@H](CO)[C@@H](O)[C@H](O)[C@H]1O (stereo not given in full) | 10.3 µM |
| N#CC1C(=N)Oc2cc(O)ccc2C1c1ccncc1 (stereo not given) | 7.22 µM |
| CCNC(=O)[C@H]1O[C@@H](n2cnc3c(N)ncnc32)C(O)[C@H]1O (stereo not given in full) | < 0.039 µM |
| COc1ccc(C(C)NS(=O)(=O)c2ccc(Cl)cc2C(F)(F)F)cc1F (stereo not given) | 15.3 µM |
| CC1C(=O)c2cccc3c(=O)n(-c4ccccc4)c(O)c(c23)C1=O (stereo not given) | > 20 µM (inactive) |
| CCc1ccc(/C=C2\Oc3c(ccc4c3CN(C3CCS(=O)(=O)C3)CO4)C2=O)cc1 (stereo not given) | 10.6 µM |
| CCCc1ccccc1N1C(=O)CSC1c1ccc(NC(=O)CCl)cc1 (stereo not given) | > 20 µM (inactive) |
| C=CCN1C=CC(=CC=C(C#N)C#N)C=C1 | 2.17 µM |
| N#Cc1cc(C(=O)c2cc(Cl)cc(Cl)c2O)cn(-c2nccs2)c1=O | > 20 µM (inactive) |
| C(=Cc1ccccc1)C=NNc1ncnc2ccccc12 | > 20 µM (inactive) |
| Cc1csc(-c2cc3ccc(O)c(CN4CCN(CCO)CC4)c3oc2=O)n1 | < 0.039 µM |
| O=C1OC(c2ccc(Cl)c([N+](=O)[O-])c2)=N/C1=C\c1cc2cc3c4c(c2oc1=O)CCCN4CCC3 | < 0.039 µM |
| CCOC(=O)N1CCN(c2ccc(/C=C(\C#N)c3nc4ccccc4n3C)o2)CC1 | > 20 µM (inactive) |
| N#Cc1cccc(C(=O)N2CCN(C(c3ccccc3)c3ccc(Br)cc3)CC2)c1 (stereo not given) | > 20 µM (inactive) |
| CCOc1cc(/C=C2\C(=N)N3N=CSC3=NC2=O)cc(Br)c1OC(=O)c1ccccc1 | 3.04 µM |
| C=CCN1C(=O)C(Cc2ccc(OC)cc2)S/C1=N/N=C\c1cccs1 (stereo not given) | > 20 µM (inactive) |
| Clc1cccc2ccc(CN3CCn4cncc4C3)nc12 | 19.2 µM |
| COc1ccccc1CCNC(=O)c1ccc(Cn2c(C)nc3ccccc32)o1 | > 20 µM (inactive) |
| CN1C(=S)N(CCCN2CCOCC2)C(=O)/C1=C/c1ccc(N(C)C)cc1 | > 20 µM (inactive) |

| SMILES | EC50 |
| --- | --- |
| CCN(CC)c1ccc(/C=C2\SC(=S)N(CCS(=O)(=O)O)C2=O)cc1 | 0.039 µM |
| CCC(CO)[n+]1c(C)cc(C=C2Sc3ccccc3N2CC)cc1C (stereo not given) | 1.86 µM |
| O=C1NC(=O)C2=Cc3ccc(O)cc3OC2(O)N1 (stereo not given) | 0.247 µM |
| CNC(=O)NC(=O)CCN1CC(c2ccccc2Cl)c2c([nH]c3ccccc23)C1C (stereo not given) | > 20 µM (inactive) |
| O=C1/C(=C/c2ccc3c(c2)OCO3)Oc2c1ccc1c2CN(CC2CCCO2)CO1 (stereo not given) | 8.39 µM |
| CCOC(=O)C1CCCN(CC(=O)N2N=C(c3ccccc3Cl)CC2c2ccc(Cl)cc2)C1 (stereo not given) | > 20 µM (inactive) |
| COc1cc(/C=C2\Oc3c(ccc4c3CN(CC3CCCO3)CO4)C2=O)cc(OC)c1OC (stereo not given) | 9.34 µM |
| C[C@H](O)C(=O)C1=Nc2c(nc(N)[nH]c2=O)NC1 | > 20 µM (inactive) |
| O=C(NCCSc1ccc(Cl)cc1)c1ccc2c(=O)n3c(nc2c1)CCC3 | > 20 µM (inactive) |
| O=C(CNCc1ccccc1)N1CC(=O)N(c2cccc(Cl)c2)C1 | > 20 µM (inactive) |
| COC(=O)c1cnc(/C=C/c2cc(C)c(O)c(C)c2)s1 | > 20 µM (inactive) |
| O=C1Nc2ccccc2C1C=NN1CCOCC1 (stereo not given) | > 20 µM (inactive) |
| CCCCC(CC)CN=C(N)NC(N)=NCCCCCCN=C(N)NC(N)=NCC(CC)CCCC (stereo not given) | > 20 µM (inactive) |
| CCN1CCc2c(sc(NC(=O)C3=COCCO3)c2-c2nc3ccccc3s2)C1 | 0.945 µM |
| O=C1/C(=C/c2cc3cc(Br)ccc3o2)Oc2c1ccc(O)c2CN1CCN(CCO)CC1 | 6.64 µM |
| COc1ccc(-c2cccc(-c3ccc(NC(=O)c4oc5ccccc5c4C)cc3)n2)cc1 | > 20 µM (inactive) |
| O=C(c1cnn(-c2ccccc2)n1)N1CCCC(COCc2ccccc2)C1 (stereo not given) | 0.513 µM |
| CCN(CC)c1ccc2cc(C(N)=O)/c(=N\NC(N)=S)oc2c1 | < 0.039 µM |
| COc1ccccc1OCCCOc1ccc(Br)cc1Cl | > 20 µM (inactive) |
| Cc1cc(O)c(CN2CCN(C)CC2)c2c1C(=O)/C(=C/c1cccs1)O2 | 16.8 µM |
| CCCc1[nH]n(-c2ccc(Cl)c(Cl)c2)c(=O)c1/C=C1\NC(=O)N(Cc2ccc(C)cc2)C1=O | 18.9 µM |
| O=c1oc2cc(O)ccc2cc1-c1nc2ccccc2o1 | 4.91 µM |
| CCN1C(=Cc2cc(C)[n+](CCOC)c(C)c2)Sc2ccccc21 | 17.6 µM |
| CC(C)C(C(=O)O)N1C(=O)/C(=C/c2ccc(N(C)C)cc2)SC1=S (stereo not given) | 12 µM |
| CC1(C)CC(c2[nH]cnc2-c2ccccc2)CCO1 (stereo not given) | > 20 µM (inactive) |

| SMILES | EC50 |
| --- | --- |
| COCCCN(Cc1ccc(C(C)(C)C)cc1)Cc1cccn1Cc1cccc(C)c1 | > 20 µM (inactive) |
| COc1ccc(OC)c(CCNc2nc3cnc(-c4cc(OC)c(OC)c(OC)c4)cc3n2C)c1 | > 20 µM (inactive) |
| CCN1CCc2c(sc(NC(=O)COc3ccccc3)c2-c2nc3ccccc3s2)C1 | > 20 µM (inactive) |
| c1ccc(CNc2nc(NCCc3ccncc3)c3sccc3n2)cc1 | 15.8 µM |
| CCN(CC)CCCC(C)Nc1c2ccc(Cl)cc2nc2ccc(OC)cc12 (stereo not given) | 4.89 µM and 1.41 µM |
| Cc1cc(C=C2Sc3ccccc3N2C)cc(C)[n+]1Cc1ccncc1 | 18.9 µM |
| CCOc1cc(/C=C2/NC(=S)NC2=O)cc(Br)c1O | 6.37 µM |
| Nc1ncnc2c1ncn2[C@@H]1O[C@H](CO)[C@H](O)C1O (stereo not given in full) | 7.87 µM |
| CCC(CO)[n+]1c(C)cc(C=C2Sc3ccccc3N2Cc2ccccc2)cc1C (stereo not given) | > 20 µM (inactive) |
| Cc1ccc2nc(Cn3cnc4c(Cl)cc(Cl)cc4c3=O)cc(=O)n2c1 | > 20 µM (inactive) |
| COc1ccc(/C=C2\Oc3c(ccc4c3CN(Cc3ccncc3)CO4)C2=O)cc1 | 8.8 µM |
| O=c1cc(C(F)(F)F)c2ccc(O)cc2o1 | 6.31 µM |
| COc1cc(C=C(C#N)S(=O)(=O)c2ccc(Cl)cc2)cc(Cl)c1O | > 20 µM (inactive) |
| CC(C)CN1C(=O)C(=Cc2c(N3CCN(CCO)CC3)nc3ccccn3c2=O)SC1=S | > 20 µM (inactive) |
| Nc1nc(Cl)nc2c1ncn2[C@@H]1O[C@H](COP(=O)(O)OP(=O)(O)OP(=O)(O)O)[C@H](O)C1O (stereo not given in full) | > 20 µM (inactive) |
| CCCC[n+]1c(C)cc(C=C2Sc3ccccc3N2CC)cc1C | 18.7 µM |
| COc1ccc2nc(C=Cc3cc(Br)c(O)c(OC)c3)sc2c1 | > 20 µM (inactive) |
| CCC(C)[n+]1c(C)cc(C=C2Sc3ccccc3N2C)cc1C (stereo not given) | 7.94 µM |
| COc1ccc(OC)c(CCNc2nc3cnc(-c4ccc5c(c4)OCO5)cc3n2C)c1 | > 20 µM (inactive) |
| Cc1ccc(N2C(=O)NC(=O)/C(=C\c3cccs3)C2=O)cc1 | > 20 µM (inactive) |
| CCN=c1cc2oc3cc(NCC)c(C)cc3c(-c3ccccc3C(=O)OCC)c-2cc1C | 0.0953 µM |
| CCOC(=O)c1ccccc1-c1c2ccc(=N)cc-2oc2cc(N)ccc12 | < 0.039 µM |
| COc1ccc(N2C(=O)/C(=C\c3ccc[nH]3)N(C)C2=S)c([N+](=O)[O-])c1 | > 20 µM (inactive) |
| COc1cc(OC)c(OC)cc1/C=C1/SC(=S)N(CC(=O)O)C1=O | 5.82 µM |
| O=[N+]([O-])c1ccc(Cl)c2nonc12 | 4.83 µM |
